Source: ChEMBL document CHEMBL2086254, “Synthesis and identification of novel indolo[2,3-a]pyrimido[5,4-c]carbazoles as a new class of anti-cancer agents” (Eur J Med Chem, 2012)

Experiments:
Type in all cases: functional
HOP-92 = test: Cytotoxicity against human HOP92 cells assessed as cell growth at 10 uM after 48 hrs by SRB assay relative to control; conditions: HOP-92, 48 h, read-out: Activity
SF-268 = test: Cytotoxicity against human SF268 cells after 48 hrs by SRB assay; conditions: SF-268, 48 h
SNB-19 = test: Cytotoxicity against human SNB19 cells after 48 hrs by SRB assay; conditions: SNB-19, 48 h
ACHN = test: Cytotoxicity against human ACHN cells after 48 hrs by SRB assay
SF-295 = test: Cytotoxicity against human SF295 cells after 48 hrs by SRB assay; conditions: SF-295, 48 h
HL-60 = test: Cytotoxicity against human HL60 cells after 48 hrs by SRB assay; conditions: HL-60, 48 h
HCC 2998 = test: Cytotoxicity against human HCC2998 cells after 48 hrs by SRB assay; conditions: HCC 2998, 48 h
KM12 = test: Cytotoxicity against human KM12 cells after 48 hrs by SRB assay; conditions: KM12, 48 h
NCI-H23 = test: Cytotoxicity against human NCI-H23 cells after 48 hrs by SRB assay; conditions: NCI-H23, 48 h
NCI-H460 = test: Cytotoxicity against human NCI-H460 cells after 48 hrs by SRB assay; conditions: NCI-H460, 48 h
PC-3 = test: Cytotoxicity against human PC3 cells after 48 hrs by SRB assay; conditions: PC-3, 48 h
RPMI-8226 = test: Cytotoxicity against human RPMI8226 cells after 48 hrs by SRB assay; conditions: RPMI-8226, 48 h
OVCAR-3 = test: Cytotoxicity against human OVCAR3 cells after 48 hrs by SRB assay; conditions: OVCAR-3, 48 h
DU-145 = test: Cytotoxicity against human DU145 cells after 48 hrs by SRB assay; conditions: DU-145, 48 h
OVCAR-4 = test: Cytotoxicity against human OVCAR4 cells after 48 hrs by SRB assay; conditions: OVCAR-4, 48 h
MOLT-4 = test: Cytotoxicity against human MOLT4 cells after 48 hrs by SRB assay; conditions: MOLT-4, 48 h
[1] = read-out: LC50 (the source's name)

Cn1cc(-c2[nH]c(=S)[nH]c(=O)c2-c2cn(C)c3ccccc23)c2ccccc21
growth at 10 µM (HOP-92): 69.8%

Cn1c2ccccc2c2c3nc(N)[nH]c(=O)c3c3c4ccccc4n(C)c3c21
GI50 (SF-268): 15.8 µM
TGI (SF-268): > 100 µM
CC50 (SF-268; [1]): > 100 µM
GI50 (SNB-19): > 100 µM
TGI (SNB-19): > 100 µM
CC50 (SNB-19; [1]): > 100 µM
GI50 (ACHN): 1.11 µM
TGI (ACHN): > 100 µM
CC50 (ACHN; [1]): > 100 µM
GI50 (SF-295): 3.68 µM
TGI (SF-295): 12.9 µM
CC50 (SF-295; [1]): 76.7 µM
GI50 (HL-60): 4.19 µM
TGI (HL-60): 38 µM
CC50 (HL-60; [1]): > 100 µM
GI50 (HCC 2998): 6.08 µM
TGI (HCC 2998): > 100 µM
CC50 (HCC 2998; [1]): > 100 µM
GI50 (KM12): 3.24 µM
TGI (KM12): 32.3 µM
CC50 (KM12; [1]): > 100 µM
GI50 (NCI-H23): 3.51 µM
TGI (NCI-H23): > 100 µM
CC50 (NCI-H23; [1]): > 100 µM
GI50 (NCI-H460): 3.06 µM
TGI (NCI-H460): > 100 µM
CC50 (NCI-H460; [1]): > 100 µM
GI50 (PC-3): 5.54 µM
TGI (PC-3): > 100 µM
CC50 (PC-3; [1]): > 100 µM
GI50 (RPMI-8226): 11.1 µM
TGI (RPMI-8226): 65.6 µM
CC50 (RPMI-8226; [1]): > 100 µM
GI50 (OVCAR-3): 9.07 µM
TGI (OVCAR-3): 25.6 µM
CC50 (OVCAR-3; [1]): 69.8 µM
GI50 (DU-145): 8.2 µM
TGI (DU-145): > 100 µM
CC50 (DU-145; [1]): > 100 µM
GI50 (OVCAR-4): 16.8 µM
TGI (OVCAR-4): > 100 µM
CC50 (OVCAR-4; [1]): > 100 µM
GI50 (MOLT-4): 6.09 µM
TGI (MOLT-4): > 100 µM
CC50 (MOLT-4; [1]): > 100 µM
